Results on 4 compounds are retold here after ChEMBL document CHEMBL1149720, “Homoscalarane sesterterpenes from Lendenfeldia frondosa” (J Nat Prod, 1992).

A short description of assay [1]: Inhibition of PLA2 activity at 8 uM.
Assay [2] in a line: Inhibition of PLA2 activity at 4 uM.

Calls of active or inactive are those of the source. The calls are words filed in the database; no cut-off is given here.

By inhibition is commonly meant the percentage by which the read-out fell short of the control. A higher inhibition goes with a response far below the control. In assay [1], `CC(=O)OC[C@]12CCCC(C)(C)[C@@H]1CC[C@]1(C)[C@@H]2C[C@H]2OC(=O)[C@H]3[C@H](C(C)=O)[C@H](OC(C)=O)C[C@@H]1[C@]23C` yielded an inhibition of 35%.

In turn, `CC1=C(CC/C(C)=C/CCC2=CC[C@H](C3=CC(=O)O[C@H]3O)O[C@H]2O)C(C)(C)CCC1` registered an inhibition in assay [2] of 100%.

With `CC(=O)OC[C@]12CCCC(C)(C)[C@@H]1CC[C@]1(C)[C@@H]2C[C@@H](O)[C@]2(C)[C@H]3C(=O)O[C@@H](C)[C@@H]3[C@@H](OC(C)=O)C[C@@H]12`, the result in assay [1] was inactive.

For the compound `COC(=O)[C@H]1[C@H](C(C)=O)[C@@H](OC(C)=O)C[C@H]2[C@]3(C)CC[C@H]4C(C)(C)CCC[C@]4(COC(C)=O)[C@H]3C[C@@H](O)[C@]12C`, in assay [1], the outcome was inactive.
